Test results as given in ChEMBL document CHEMBL1201862, “PubChem BioAssay data set” (2004).
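Cultured in 96-well plates, cells were exposed to test compound for 48 hours across five concentrations. GI50 = concentration required for 50% inhibition of growth.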 The source made the active and inactive calls. No stated cut-off is given here; in the data, active = GI50 up to about 1.1 µM and inactive = higher.

What was measured:
Test in all cases: NCI tumour cell line growth inhibition, 48 h
[1] = tested on: M14
[2] = tested on: DLD-1
[3] = tested on: NCI-H460
[4] = tested on: NCI-H522
[5] = tested on: HT-29
[6] = tested on: HOP-62
[7] = tested on: MOLT-4
[8] = tested on: SW-620
[9] = tested on: EKVX
[10] = tested on: ACHN
[11] = tested on: MDA-MB-435
[12] = tested on: T47D
[13] = tested on: CAKI-1
[14] = tested on: SK-MEL-2
[15] = tested on: SF-539
[16] = tested on: MDA-N
[17] = tested on: SNB-75
[18] = tested on: NCI-H226
[19] = tested on: MCF7
[20] = tested on: Hs-578T

Compound	GI50 [1]	GI50 [2]	GI50 [3]	GI50 [4]	GI50 [5]	GI50 [6]	GI50 [7]	GI50 [8]	GI50 [9]	GI50 [10]	GI50 [11]	GI50 [12]	GI50 [13]	GI50 [14]	GI50 [15]	GI50 [16]	GI50 [17]	GI50 [18]	GI50 [19]	GI50 [20]
COC(=O)N/N=C/C(=C/Nc1ccccc1)[N+](=O)[O-]	> 100 µM (inactive)	> 100 µM (inactive)	> 100 µM (inactive)	86.7 µM (inactive)	> 100 µM (inactive)	> 100 µM (inactive)	> 100 µM (inactive)	> 100 µM (inactive)	> 100 µM (inactive)	> 100 µM (inactive)	–	–	–	–	–	–	–	–	–	–
Nc1ncnc2c1nc(Cl)n2[C@@H]1O[C@@H]2COP(=O)(O)O[C@H]2[C@H]1O [TOCLADESINE]	8.02 µM (inactive)	3.81 µM (inactive)	7.03 µM (inactive)	27.1 µM (inactive)	8.39 µM (inactive)	19.5 µM (inactive)	7 µM (inactive)	12.1 µM (inactive)	35.6 µM (inactive)	5.05 µM (inactive)	5.41 µM (inactive)	14.7 µM (inactive)	3.61 µM (inactive)	> 99.8 µM (inactive)	49 µM (inactive)	10.9 µM (inactive)	31.8 µM (inactive)	6.18 µM (inactive)	8.11 µM (inactive)	28.7 µM (inactive)
CCN(CC)c1ccc(C(=C2C=CC(=[N+](CC)CC)C=C2)c2ccc(N(CC)CC)cc2)cc1	0.175 µM (active)	0.063 µM (active)	0.0411 µM (active)	0.113 µM (active)	0.0414 µM (active)	0.238 µM (active)	0.115 µM (active)	0.0711 µM (active)	0.244 µM (active)	0.0446 µM (active)	0.111 µM (active)	0.106 µM (active)	0.21 µM (active)	0.117 µM (active)	0.195 µM (active)	0.103 µM (active)	0.104 µM (active)	0.407 µM (active)	0.158 µM (active)	0.0889 µM (active)
Nc1nc(CCc2n[nH]c(N)n2)n[nH]1	> 100 µM (inactive)	> 100 µM (inactive)	> 100 µM (inactive)	> 100 µM (inactive)	> 100 µM (inactive)	> 100 µM (inactive)	> 100 µM (inactive)	> 100 µM (inactive)	> 100 µM (inactive)	> 100 µM (inactive)	–	–	> 100 µM (inactive)	> 100 µM (inactive)	> 100 µM (inactive)	–	> 100 µM (inactive)	> 100 µM (inactive)	–	–
Cc1ccc(S(=O)(=O)CNC(=S)CCCC(=S)NCS(=O)(=O)c2ccc(C)cc2)cc1	> 100 µM (inactive)	> 100 µM (inactive)	> 100 µM (inactive)	41.4 µM (inactive)	> 100 µM (inactive)	> 100 µM (inactive)	22.2 µM (inactive)	53.5 µM (inactive)	> 100 µM (inactive)	–	–	–	> 100 µM (inactive)	–	> 100 µM (inactive)	–	> 100 µM (inactive)	> 100 µM (inactive)	–	–
C/C(=N\NC(N)=S)C(CN(CC(C)C)CC(C)C)C(=O)Nc1ccc(C)cc1C (configuration not stated)	> 100 µM (inactive)	> 100 µM (inactive)	> 100 µM (inactive)	> 100 µM (inactive)	> 100 µM (inactive)	> 100 µM (inactive)	> 100 µM (inactive)	> 100 µM (inactive)	54.6 µM (inactive)	> 100 µM (inactive)	–	–	> 100 µM (inactive)	> 100 µM (inactive)	> 100 µM (inactive)	–	90.6 µM (inactive)	> 100 µM (inactive)	–	–
CC(=O)NC1C(OCc2ccccc2)OC(COC(=O)CCCCCCCCCCNc2ccc([N+](=O)[O-])c3[nH]c4ccccc4c(=O)c23)C(O)C1OC(C)C(=O)NC(C)C(=O)NC(CCC(N)=O)C(=O)OCc1ccccc1 (configuration not stated)	> 100 µM (inactive)	> 100 µM (inactive)	> 100 µM (inactive)	> 100 µM (inactive)	> 100 µM (inactive)	> 100 µM (inactive)	> 100 µM (inactive)	> 100 µM (inactive)	> 100 µM (inactive)	> 100 µM (inactive)	–	–	> 100 µM (inactive)	> 100 µM (inactive)	> 100 µM (inactive)	–	> 100 µM (inactive)	> 100 µM (inactive)	–	–
O=C1CCCC[C@H]1[C@H]1CCC[C@@H]([C@H]2CCCCC2=O)C1=O	> 100 µM (inactive)	> 100 µM (inactive)	> 100 µM (inactive)	> 100 µM (inactive)	> 100 µM (inactive)	> 100 µM (inactive)	> 100 µM (inactive)	> 100 µM (inactive)	> 100 µM (inactive)	> 100 µM (inactive)	–	–	> 100 µM (inactive)	> 100 µM (inactive)	> 100 µM (inactive)	–	> 100 µM (inactive)	> 100 µM (inactive)	–	–
Sc1ccccc1S	> 100 µM (inactive)	> 100 µM (inactive)	> 100 µM (inactive)	–	> 100 µM (inactive)	> 100 µM (inactive)	–	> 100 µM (inactive)	> 10 µM (inactive)	> 100 µM (inactive)	–	–	> 100 µM (inactive)	–	–	–	–	–	–	–
